Measurements from publication PMC12254266, “Multicolored sequential resonance energy transfer for detection of simultaneous ligand binding at G protein-coupled receptors” (Nature Communications, 2025).
Values joined by “and” are separate entries in the source; they are usually repeats but may differ in a detail not shown here. Equal entries are not always repeated.

Assays:
FFA1-Nluc [1] = target: T1, FFA1-Nluc (Homo sapiens, UniProt O14842); assay: DISCo-BRET (endpoint, spectra scan, kinetics) with TUG-2591 and TUG-2597 at C terminal Nluc tagged FFA1; format: binding; set-up: expressed in transfected cells; details: for Specific BRET (540/450), % of control: Figure 4Bii, single replicate values (technical duplicate)
T1 sequence (O14842 whole entry): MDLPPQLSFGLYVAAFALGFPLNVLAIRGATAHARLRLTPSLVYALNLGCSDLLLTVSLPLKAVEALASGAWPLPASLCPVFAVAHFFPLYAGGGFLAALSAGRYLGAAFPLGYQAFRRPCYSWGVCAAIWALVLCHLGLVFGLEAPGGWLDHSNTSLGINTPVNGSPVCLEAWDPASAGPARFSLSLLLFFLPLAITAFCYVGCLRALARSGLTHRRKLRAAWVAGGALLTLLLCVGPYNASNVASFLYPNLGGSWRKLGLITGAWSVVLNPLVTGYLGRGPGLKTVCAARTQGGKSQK
How it was run: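 Flp-In T-REx 293 cells expressing Nluc-tagged FFA1 were induced with 100 ng/mL doxycycline for 24 h, then given Nano-Glo (1:800 final). Endpoint and spectral reads were taken 5 min after ligand at 37 °C; kinetics were read at 25 °C with sequential ligand additions. BRET ratios were taken from Nluc, NBD and SulfoCy5 emissions.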

FFA1 [2] = target: T2, FFA1 (Homo sapiens, UniProt O14842); assay: NanoBiT arrestin-3 recruitment in HEK293T cells; format: cell-based; set-up: expressed in transfected cells; host or cells: HEK293T, transient; details: for Arrestin recruitment (% TUG-905): technical duplicate
T2 sequence (O14842 whole entry, the tested form may be a part): as the sequence (O14842 whole entry) above
Method: For arrestin-3 recruitment assays, HEK293T cells were transfected with FFA1 receptor and a bystander NanoBiT split luciferase arrestin-3 recruitment biosensor. Cells were transfected and plated simultaneously in a reverse transfection protocol into a poly-D-lysine coated white 96-well plate. Per well, 60,000 cells were transfected with 5 ng plasmid expressing LgBiT with a N-terminal Lyn11 plasma membrane localisation tag, 5 ng plasmid expressing bovine arrestin-3 fused at its N-terminal to SmBiT tag and 30 ng plasmid expressing the human FFA1 receptor. Total DNA was made up to 100 ng total/well with empty pcDNA3 vector and transfected to cell suspension with 0.6 µg/well PEI. Following transfection cells were cultured for 24 h before use. On the day of assay, cells were washed twice with HBSS and incubated in HBSS for 30 min at 37 °C. NanoGlo substrate was added at a final 1:800 dilution and incubated in the dark for 10 min at 37 °C. […] Raw luminescence values were divided by baseline signal (average of first 5 data points prior to compound addition) and vehicle measurements subtracted from agonist treatment. Area under curves were calculated and concentration response curves plotted.

FFA1-Nluc [3] = target: T1, FFA1-Nluc; assay: Bystander BRET internalisation assay, FFA1-Nluc in HEK293T cells; format: cell-based; set-up: expressed in transfected cells; host or cells: HEK293T (ATCC, CRL-3216), transient; details: in words; up to 60 min
Method: Cells were transfected using a reverse transfection protocol while plating into a poly-D-lysine coated white 96-well plates. Cells were plated at 60,000 cells with 100 ng of plasmid DNA and 0.6 µg of polyethyleneimine (PEI) per well. Cells were cultured for 24 h before washing with HBSS and incubating in HBSS at 37 °C for 30 min. NanoGlo substrate was added a final 1:800 dilution and plates incubated for 10 min at 37 °C. […] After 5 min of baseline measurements, readings were paused and test compounds added to the plate.

FFA1 [4] = target: T2, FFA1; assay: Ca2+ mobilisation (Fura2) in Flp-In T-REx 293 cells expressing Nluc-FFA1, FFA1-Nluc or untagged FFA1; format: cell-based; set-up: expressed in transfected cells; details: for Ca2+ Response as a % of T360 Response: single technical replicates
How it was run: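 520 nm emission read at 340 and 380 nm excitation over 90 s spanning compound addition. Response taken as peak 340/380 ratio after subtracting pre-addition ratios.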

pIC50 DISCo-BRET NBD/Nluc (FFA1-Nluc [1]; 100 nM TUG-2591 and […] TUG-2597, NC = No competition): 7.1±0.2
pIC50 DISCo-BRET SulfoCy5/NBD (FFA1-Nluc [1]; 100 nM TUG-2591 and […] TUG-2597, one site model, NC = No competition): 7.6±0.1
'bottom' of the IC50 curve, DISCo-BRET NBD/Nluc (FFA1-Nluc [1]; percentage of binding obtained in the absence of competing ligand): 2.7%
'bottom' of the IC50 curve, DISCo-BRET SulfoCy5/NBD (FFA1-Nluc [1]; percentage of binding obtained in the absence of competing ligand, 100 nM TUG-2591 and […] TUG-2597): 25%
pKi DISCo-BRET NBD/Nluc (FFA1-Nluc [1]; using Kd TUG-2597 380 nM): 7.3±0.2
EMax (% TUG-905) arrestin-3 recruitment (FFA1 [2]; percentage of the response to 10 μM TUG-905, ± SEM): 66 ± 8%
pEC50 arrestin-3 recruitment (FFA1 [2]; ± SEM, N=3): 8.9 ± 0.4
internalization of FFA1-Nluc (FFA1-Nluc [3]): No internalization
pEC50 (FFA1 [4]; Ca2+ data, mean±SEM, NR = No response): 7.48±0.31
EMax (FFA1 [4]; percentage of response to 10 μM T360, NR = No response): 105±5%
SMILES: COc1ccc(CCCC(C)(C)C)c(N2CCC(COc3cccc(C(CC(=O)O)C4CC4)c3)CC2)c1.O=C(O)C(F)(F)F (stereo not shown) [T360]
Specific BRET (540/450), % of control (FFA1-Nluc [1]; log[Ligand] -5): 1.63 % of control and 7.70 % of control and -6.77 % of control and 6.77 % of control and -12.97 % of control and -14.56 % of control and 1.39 % of control and 12.17 % of control and -49.44 % of control and -45.86 % of control and -1.49 % of control and 1.49 % of control and 11.42 % of control and 8.60 % of control
Specific BRET (540/450), % of control (FFA1-Nluc [1]; log[Ligand] -5.5): 30.05 % of control and 22.50 % of control and 2.63 % of control and 15.04 % of control and 41.18 % of control and 27.53 % of control and 25.39 % of control and 35.48 % of control and -24.38 % of control and -7.83 % of control and -19.08 % of control and -0.74 % of control and 16.94 % of control and 11.73 % of control
Specific BRET (540/450), % of control (FFA1-Nluc [1]; log[Ligand] -6): 30.79 % of control and 26.05 % of control and 32.33 % of control and 27.63 % of control and 21.16 % of control and 17.29 % of control and 31.30 % of control and 14.26 % of control and 23.94 % of control and -20.81 % of control and -12.14 % of control and 8.18 % of control and 24.56 % of control and 26.12 % of control
Specific BRET (540/450), % of control (FFA1-Nluc [1]; log[Ligand] -6.5): 56.11 % of control and 56.70 % of control and 19.92 % of control and 23.50 % of control and 31.40 % of control and 51.88 % of control and 45.22 % of control and 38.96 % of control and 25.28 % of control and 31.99 % of control and -27.26 % of control and -0.25 % of control and 41.03 % of control and 36.03 % of control
Specific BRET (540/450), % of control (FFA1-Nluc [1]; log[Ligand] -7): 69.58 % of control and 52.70 % of control and 27.26 % of control and 51.32 % of control and 37.09 % of control and 73.27 % of control and 43.13 % of control and 45.22 % of control and 35.12 % of control and 64.21 % of control and 2.48 % of control and 20.07 % of control and 56.78 % of control and 46.56 % of control
Specific BRET (540/450), % of control (FFA1-Nluc [1]; log[Ligand] -8): 90.01 % of control and 86.45 % of control and 67.29 % of control and 72.37 % of control and 95.79 % of control and 112.63 % of control and 106.43 % of control and 144.35 % of control and 71.81 % of control and 80.31 % of control and 48.08 % of control and 68.65 % of control and 78.15 % of control and 70.13 % of control
Specific BRET (540/450), % of control (FFA1-Nluc [1]; log[Ligand] -9): 104.22 % of control and 94.30 % of control and 79.70 % of control and 92.67 % of control and 141.30 % of control and 86.46 % of control and 144.00 % of control and 157.22 % of control and 122.37 % of control and 108.50 % of control and 74.10 % of control and 106.82 % of control and 97.86 % of control and 85.14 % of control
Arrestin recruitment (% TUG-905) (FFA1 [2]; log[Ligand] -7): 60.5575 % TUG-905 and 49.7987 % TUG-905 and 50.2806 % TUG-905 and 80.5606 % TUG-905 and 71.6469 % TUG-905 and 70.6208 % TUG-905
Arrestin recruitment (% TUG-905) (FFA1 [2]; log[ligand] -6): 47.2004 % TUG-905 and 63.2995 % TUG-905 and 73.3709 % TUG-905 and 81.6896 % TUG-905 and 75.2182 % TUG-905 and 56.718 % TUG-905
Arrestin recruitment (% TUG-905) (FFA1 [2]; log[ligand] -6.5): 57.9984 % TUG-905 and 49.7595 % TUG-905 and 71.7903 % TUG-905 and 68.6055 % TUG-905 and 72.4316 % TUG-905 and 77.5018 % TUG-905
Arrestin recruitment (% TUG-905) (FFA1 [2]; log[ligand] -7.5): 57.0191 % TUG-905 and 67.1382 % TUG-905 and 59.7164 % TUG-905 and 62.616 % TUG-905 and 83.9201 % TUG-905 and 49.002 % TUG-905
Ca2+ Response as a % of T360 Response (FFA1 [4]; log[Ligand] -6): 107.28% and 92.72% and 101.13% and 98.87% and 101.25% and 98.75%
Ca2+ Response as a % of T360 Response (FFA1 [4]; log[Ligand] -6.5): 78.71% and 83.08% and 86.23% and 89.07% and 107.10% and 103.71%
Ca2+ Response as a % of T360 Response (FFA1 [4]; log[Ligand] -7): 50.40% and 57.83% and 53.05% and 49.34% and 105.47% and 92.83%
Ca2+ Response as a % of T360 Response (FFA1 [4]; log[Ligand] -7.5): 52.48% and 51.74% and 26.53% and 33.96% and 89.83% and 84.58%
Ca2+ Response as a % of T360 Response (FFA1 [4]; log[Ligand] -8): 4.55% and 3.96% and 1.45% and 1.23% and 56.26% and 55.08%
Ca2+ Response as a % of T360 Response (FFA1 [4]; log[Ligand] -9): 6.44% and -16.92% and -0.13% and -0.73% and -0.82% and -0.55%
Ca2+ Response as a % of T360 Response (FFA1 [4]; log[Ligand] -10): -18.12% and -11.48% and -0.62% and 0.09% and -1.11% and 0.64%
